Experimental findings from patent US10845369B2, “Sampling devices and methods of use” (3M INNOVATIVE PROPERTIES COMPANY, priority 2008, dated 2020) are described below.

A short description of data set [1]: Moisture retention by premoistened swab devices during extended storage. The data set is classed as physicochemical. The source says:
Rapid Cleanliness Test swab sampling devices, sold under the trade name CLEAN-TRACE, were obtained from 3M Health Care (Bridgend, UK). Sterile Dacron swabs were obtained from Puritan Medical Products Company (Guilford, Me.). Foil pouches (160 mm (w)×270 mm (1) heat-sealable PET/foil/LDPE laminate pouches) were obtained from Westfield Medical Ltd. (Bath, UK). The analytical balance (model GR-300) was obtained from A&D Mercury Pty., (Thebarton, South Australia)
The swabs were removed from the CLEAN-TRACE devices and replaced with dry, sterile Dacron swabs. Half of the replacement swabs were dipped in solution I (see Table 1) for 20 seconds, tapped on the edge of a sterilin container 5 times (to remove excess swabbing solution), and the swabs were weighed before each CLEAN-TRACE tube was reassembled with a moistened swab. The remaining replacement swabs were similarly moistened with solution II (Table 1), weighed, and reassembled in the tubes.
The initial weight (T0) of each moistened swab was recorded. The reassembled tubes were placed into individual plastic pouches, which were heat-sealed. Care was taken to minimize the amount of air sealed in each pouch. The pouches were divided into two groups. One group was placed into a refrigerator which was held at a temperature of 4±3 degrees Celsius. The other group was placed into a chamber which was held at 25±1 degree Celsius. Sets of ten replicate tubes were removed from each chamber at each specified time point, the tubes were removed from the pouch and weighed, and the weights were recorded.
(§1) Swabs were prepared as described in Example 1. The swabs were tested for moisture retention as described in Example 1, for compatibility with luciferase enzyme as described in Example 3, and for perdurable detectable residue as described in Example 4. In these experiments, the swab effectiveness parameter was not recorded. All concentrations are listed as percent weight/volume. Solution I-moistened swabs were used as controls for all comparisons. Inhibition of luciferase activity was scored as significant when the measurement from the test swab was <90% of the activity observed with the control swabs. The inhibition was scored as very significant when the measurement from the test swab was <50% of the activity observed with the control swabs.

Another data set has as its system luciferase enzyme. As to the kind of experiment: ATP detection activity test in CLEAN-TRACE devices (compatibility with luciferase enzyme). The data set is classed as biochemical.
From the text: The swabs were removed from the CLEAN-TRACE devices and replaced with dry, sterile Dacron swabs. One-third of the replacement swabs were dipped in solution I (see Table 1) for 20 seconds, tapped on the edge of a sterilin container 5 times (to remove excess swabbing solution), and the CLEAN-TRACE tube was reassembled with the moistened swab. One-third of the remaining replacement swabs were similarly moistened with solution II (Table 1) containing 2% (w/v) 1,2-propanediol and reassembled in the tubes. The remaining one-third were similarly moistened with solution II (Table 1) containing 5% (w/v) 1,2-propanediol and reassembled in the tubes. The reassembled devices were sealed in pouches containing 10 devices per pouch and stored at 4 degrees Celsius for 24 hours.
An ATP stock solution was prepared by reconstituting freeze-dried ATP with 500 microliters of autoclaved R.O. water to a working strength of […]. A 10-microliter aliquot of the ATP working solution was pipetted onto the middle of the bud of the test devices prepared for this Example (see above).
Individual devices were activated by plunging the handle of the swab into the test devices, thereby breaking the barrier and exposing the swab bud to the reagent solution containing luciferin. The tubes were then shaken for 20 seconds at speed 7 on the wrist action shaker (Stuart Scientific, Staffordshire, England) and the device was read device in a UNI-LITE luminometer (3M Healthcare, Bridgend, U.K.). Twenty replicate swabs were tested at each time point for each swab solution. Background readings (negative controls) were run at each time point by activating devices, containing one of the Solutions (I, IIa, or IIb), which was not spiked with the ATP solution. Ten devices were used for each negative control condition at each time point.
as §1

The mark [2] stands for this setting: 5% w/v in Solution II, vs Solution I control.
[3] abbreviates: 5% w/v, vs Solution I control swabs.
Setting [4] is: 1% w/v in Solution II, vs Solution I control.

As to `OCC(O)CO` [Glycerol], the Moisture retention result in data set [1] (1, 5% tested) is “Comparable to sorbitol and propylene glycol”; in data set [1] (10, 20, 50% tested) it was “Comparable to sorbitol and propylene glycol”. Further, the “Compatibility with luciferase enzyme” value in the data set with luciferase enzyme (up to 5% (1, 5% tested)) was “No inhibition up to 5%”.
In the case of `CC(=O)NCCO` [Incromectant (N-Acetylethanolamine), N-Acetylethanolamine], the Moisture retention in data set [1] (setting [2]) is 5% solution was comparable to PG. For the same molecule, the “Compatibility with luciferase enzyme” value in the data set on luciferase enzyme (setting [3]) is reported as “Some inhibition at 5%”.
Consider `CC(O)CO` (centres unmarked) [Propylene glycol (1,2-propanediol), 1,2-propanediol], for which the Moisture retention entry in data set [1] (setting [4]) is “No significant improvement”; in data set [1] (≥5% (5, 6, 8% tested)), “Significant improvement ≥5%”; in data set [1] (≥5% (10. 20, 25, 50% tested)), “Significant improvement ≥5%”. Further, the “Compatibility with luciferase enzyme” value in the data set with luciferase enzyme (1, 2, 3, 4% tested) is “No inhibition”; in the data set on luciferase enzyme (5, 6, 8% tested), “No inhibition”.
As for `CC(O)C(=O)[O-].[Na+]` (centres unmarked) [Sodium lactate], the Moisture retention result in data set [1] (5 or 10% soln.) was “No significant improvement with 5 or 10%”. In the data set with luciferase enzyme (setting [3]), the “Compatibility with luciferase enzyme” value was “Significant inhibition”.
For the molecule `OC[C@@H](O)[C@@H](O)[C@H](O)[C@@H](O)CO` [Sorbitol], the Moisture retention entry in data set [1] (setting [4]) is recorded as “No significant improvement with 1%”; in data set [1] (setting [2]), “Slight improvement with 5%”; in data set [1] (≥10% (10, 20, 30, 40, 50, 100% tested)) it was “Significant improvement with ≥10%”. Moreover, the “Compatibility with luciferase enzyme” value was “No inhibition” in the data set on luciferase enzyme (1% w/v, vs Solution I control swabs) and “No inhibition” with luciferase enzyme (setting [3]).
